ChEMBL document CHEMBL1152446, “Identification of an orally efficacious matrix metalloprotease 12 inhibitor for potential treatment of asthma” (J Med Chem, 2009)
Calls of active or inactive are those of the source. The rule behind the calls is not given here.

What was measured:
in vitro [1] = details: rat, liver microsomes
in vitro [2] = details: human, liver microsomes
Collagenase 3 = Collagenase 3 (Homo sapiens, UniProt P45452); assay: Inhibition of human recombinant MMP13
[3] = Metabolic stability in C57BL/6 mouse liver microsome assessed as half life; type: ADME; details: liver microsomes
[4] = target: Macrophage metalloelastase (Homo sapiens, UniProt P39900)
Ovis aries [5] = assay: Inhibition of carbachol-induced airway hyper-responsiveness in Ascaris suum challenged sheep asthma model at 10 mg/kg, po; type: functional, organism-based; design: dose 10 mg/kg
[6] = target: Matrix metalloproteinase-9 (Homo sapiens, UniProt P14780); assay: Inhibition of human MMP9
[7] = target: A disintegrin and metalloproteinase with thrombospondin motifs 4 (Homo sapiens, UniProt O75173); assay: Inhibition of human Aggrecanase 1
Mus musculus [8] = assay: Inhibition of human recombinant MMP12-induced ear-edema in C57BL/6 mouse assessed as decrease in ear edema at 30 mg/kg, po bid administered 2 hrs post challenge; type: functional; details: C57BL/6, 2 h
[9] = Clearance in C57BL/6 mouse at 2 mg/kg, iv; type: ADME, organism-based; design: dose 2 mg/kg, route intravenous; details: in vivo
Matrilysin = Matrilysin (Homo sapiens, UniProt P09237); assay: Inhibition of human MMP7
Mus musculus [10] = assay: Inhibition of human recombinant MMP12-induced ear-edema in C57BL/6 mouse assessed as decrease in ear edema at 10 mg/kg, po bid administered 2 hrs post challenge; type: functional; details: C57BL/6, 2 h
[11] = target: Matrix metalloproteinase-14 (Homo sapiens, UniProt P50281); assay: Inhibition of human MMP14
[12] = Oral bioavailability in C57BL/6 mouse at 10 mg/kg; type: ADME, organism-based; details: in vivo
[13] = target: Macrophage metalloelastase (Rattus norvegicus, UniProt Q63341); assay: Inhibition of rat MMP12
Interstitial collagenase = Interstitial collagenase (Homo sapiens, UniProt P03956); assay: Inhibition of human MMP1
[14] = Cmax in C57BL/6 mouse at 10 mg/kg, po; type: ADME, organism-based; design: dose 10 mg/kg, route oral; details: in vivo
[15] = Inhibition of sheep MMP12; design: species or system Ovis aries
[16] = Volume of distribution at steady state in C57BL/6 mouse at 2 mg/kg, iv; type: ADME, organism-based; design: dose 2 mg/kg, route intravenous; details: in vivo, read-out: Vdss
Cytochrome P450 3A4 = Cytochrome P450 3A4 (Homo sapiens, UniProt P08684); assay: Inhibition of CYP3A4; type: ADME
[17] = target: Macrophage metalloelastase (Mus musculus, UniProt P34960); assay: Inhibition of mouse MMP12
[18] = Half life in C57BL/6 mouse at 10 mg/kg, po; type: ADME, organism-based; design: dose 10 mg/kg, route oral; details: in vivo
[19] = target: A disintegrin and metalloproteinase with thrombospondin motifs 5 (Homo sapiens, UniProt Q9UNA0); assay: Inhibition of human Aggrecanase 2
Cytochrome P450 2D6 = Cytochrome P450 2D6 (Homo sapiens, UniProt P10635); assay: Inhibition of CYP2D6; type: ADME
[20] = target: Disintegrin and metalloproteinase domain-containing protein 17 (Homo sapiens, UniProt P78536); assay: Inhibition of human TACE
Stromelysin-1 = Stromelysin-1 (Homo sapiens, UniProt P08254); assay: Inhibition of human MMP3
Cytochrome P450 2C9 = Cytochrome P450 2C9 (Homo sapiens, UniProt P11712); assay: Inhibition of CYP2C9; type: ADME
Ovis aries [21] = assay: Inhibition of EAR phase of bronchoconstrictive in Ascaris suum challenged sheep asthma model at 10 mg/kg, po twice the day prior to allergen challenge and third dose 1 hr prior to allergen challenge; type: functional, organism-based; design: dose 10 mg/kg; details: Lung
Mus musculus [22] = assay: Inhibition of human recombinant MMP12-induced ear-edema in C57BL/6 mouse assessed as decrease in ear edema at 3 mg/kg, po bid administered 2 hrs post challenge; type: functional; details: C57BL/6, 2 h
Neutrophil collagenase = Neutrophil collagenase (Homo sapiens, UniProt P22894); assay: Inhibition of human MMP8
[23] = target: 72 kDa type IV collagenase (Homo sapiens, UniProt P08253); assay: Inhibition of human MMP2
[24] = target: Voltage-gated inwardly rectifying potassium channel KCNH2 (Homo sapiens, UniProt Q12809); assay: Inhibition of human ERG at 10 uM by ion works assay
[25] = target: Macrophage metalloelastase MMP-12 (Homo sapiens) (UniProt P39900); assay: Inhibition of MMP12
Chain of Macrophage metalloelastase MMP-12 (Homo sapiens) (P39900 whole entry, looked up): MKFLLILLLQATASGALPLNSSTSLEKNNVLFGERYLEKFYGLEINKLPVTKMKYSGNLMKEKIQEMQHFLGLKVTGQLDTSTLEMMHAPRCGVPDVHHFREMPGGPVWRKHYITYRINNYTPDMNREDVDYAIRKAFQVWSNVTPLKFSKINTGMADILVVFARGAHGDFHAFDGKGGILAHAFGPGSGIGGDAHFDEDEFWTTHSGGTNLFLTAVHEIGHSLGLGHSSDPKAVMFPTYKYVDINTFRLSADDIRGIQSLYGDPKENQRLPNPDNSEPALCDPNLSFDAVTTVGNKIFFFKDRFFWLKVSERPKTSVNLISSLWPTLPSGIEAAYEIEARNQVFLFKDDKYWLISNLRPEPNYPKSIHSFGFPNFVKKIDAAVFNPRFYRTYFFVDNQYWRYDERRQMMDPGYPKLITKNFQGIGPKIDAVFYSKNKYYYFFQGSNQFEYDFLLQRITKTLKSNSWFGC

Chain of Neutrophil collagenase (P22894 whole entry): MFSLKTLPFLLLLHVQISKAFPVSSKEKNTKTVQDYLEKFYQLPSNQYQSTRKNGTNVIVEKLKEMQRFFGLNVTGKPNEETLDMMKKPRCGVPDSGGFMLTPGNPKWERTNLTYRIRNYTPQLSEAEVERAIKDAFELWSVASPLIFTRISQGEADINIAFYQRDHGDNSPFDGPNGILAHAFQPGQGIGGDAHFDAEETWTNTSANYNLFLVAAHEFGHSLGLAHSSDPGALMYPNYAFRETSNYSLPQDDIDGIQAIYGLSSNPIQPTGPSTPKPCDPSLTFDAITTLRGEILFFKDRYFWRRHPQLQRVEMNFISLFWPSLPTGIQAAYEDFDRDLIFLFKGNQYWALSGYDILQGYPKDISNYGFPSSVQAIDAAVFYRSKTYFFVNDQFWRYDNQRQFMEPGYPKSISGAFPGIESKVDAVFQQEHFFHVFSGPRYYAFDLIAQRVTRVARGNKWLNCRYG
Chain of Macrophage metalloelastase (Homo sapiens, UniProt P39900) (P39900 whole entry): as the sequence (P39900 whole entry, looked up) above
Chain of Voltage-gated inwardly rectifying potassium channel KCNH2 (Q12809 whole entry): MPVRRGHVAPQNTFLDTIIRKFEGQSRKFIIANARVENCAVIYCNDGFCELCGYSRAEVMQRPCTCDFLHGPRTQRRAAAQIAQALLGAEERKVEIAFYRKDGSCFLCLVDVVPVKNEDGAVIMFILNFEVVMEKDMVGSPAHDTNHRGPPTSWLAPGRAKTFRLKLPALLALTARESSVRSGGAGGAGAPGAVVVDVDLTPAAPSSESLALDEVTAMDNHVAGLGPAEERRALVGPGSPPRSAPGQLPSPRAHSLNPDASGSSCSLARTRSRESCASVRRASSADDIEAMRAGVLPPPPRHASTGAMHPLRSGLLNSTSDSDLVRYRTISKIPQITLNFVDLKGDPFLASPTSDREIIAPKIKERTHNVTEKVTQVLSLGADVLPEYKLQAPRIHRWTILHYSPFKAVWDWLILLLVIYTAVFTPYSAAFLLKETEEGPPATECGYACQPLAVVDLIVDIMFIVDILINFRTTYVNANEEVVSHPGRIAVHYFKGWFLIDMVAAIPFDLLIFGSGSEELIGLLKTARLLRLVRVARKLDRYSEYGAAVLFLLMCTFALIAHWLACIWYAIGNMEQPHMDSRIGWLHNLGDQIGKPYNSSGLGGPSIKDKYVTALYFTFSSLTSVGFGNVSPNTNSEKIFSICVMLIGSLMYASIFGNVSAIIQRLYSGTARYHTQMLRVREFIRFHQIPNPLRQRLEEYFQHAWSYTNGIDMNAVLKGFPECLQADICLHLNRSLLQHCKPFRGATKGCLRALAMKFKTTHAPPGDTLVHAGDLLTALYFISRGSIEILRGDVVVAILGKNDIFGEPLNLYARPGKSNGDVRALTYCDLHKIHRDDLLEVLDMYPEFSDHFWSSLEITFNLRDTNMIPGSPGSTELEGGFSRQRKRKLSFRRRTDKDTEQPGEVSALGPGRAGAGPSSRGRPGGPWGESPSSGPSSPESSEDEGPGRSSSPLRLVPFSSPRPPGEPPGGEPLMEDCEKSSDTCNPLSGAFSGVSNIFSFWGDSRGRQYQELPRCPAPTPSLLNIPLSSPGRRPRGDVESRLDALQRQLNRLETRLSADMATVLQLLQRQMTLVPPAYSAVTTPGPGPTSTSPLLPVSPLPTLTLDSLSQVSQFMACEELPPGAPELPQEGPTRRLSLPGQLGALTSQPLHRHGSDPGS
Chain of A disintegrin and metalloproteinase with thrombospondin motifs 5 (Q9UNA0 whole entry): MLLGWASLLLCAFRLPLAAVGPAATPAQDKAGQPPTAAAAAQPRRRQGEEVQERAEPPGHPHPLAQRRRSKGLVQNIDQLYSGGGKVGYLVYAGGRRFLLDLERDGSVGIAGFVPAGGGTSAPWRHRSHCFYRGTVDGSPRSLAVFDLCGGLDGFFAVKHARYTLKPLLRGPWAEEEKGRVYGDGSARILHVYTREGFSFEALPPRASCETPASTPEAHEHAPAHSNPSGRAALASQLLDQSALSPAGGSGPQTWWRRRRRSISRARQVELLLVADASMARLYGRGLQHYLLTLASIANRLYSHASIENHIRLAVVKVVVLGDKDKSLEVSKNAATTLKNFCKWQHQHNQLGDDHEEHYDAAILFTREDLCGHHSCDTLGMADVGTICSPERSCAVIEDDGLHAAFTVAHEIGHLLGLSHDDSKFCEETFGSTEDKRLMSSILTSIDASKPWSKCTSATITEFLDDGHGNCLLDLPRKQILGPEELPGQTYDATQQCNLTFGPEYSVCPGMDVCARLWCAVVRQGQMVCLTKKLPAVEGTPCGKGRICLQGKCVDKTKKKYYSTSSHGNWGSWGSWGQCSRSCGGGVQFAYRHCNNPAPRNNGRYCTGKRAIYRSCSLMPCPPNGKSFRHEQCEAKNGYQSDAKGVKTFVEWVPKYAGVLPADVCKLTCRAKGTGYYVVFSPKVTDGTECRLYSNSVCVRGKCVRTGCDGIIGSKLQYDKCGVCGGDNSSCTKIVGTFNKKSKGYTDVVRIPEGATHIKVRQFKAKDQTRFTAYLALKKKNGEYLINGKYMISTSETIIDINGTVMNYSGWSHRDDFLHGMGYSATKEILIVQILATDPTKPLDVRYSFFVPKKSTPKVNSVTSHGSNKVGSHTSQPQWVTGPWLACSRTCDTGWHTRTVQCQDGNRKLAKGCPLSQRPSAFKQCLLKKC
Chain of Cytochrome P450 3A4 (P08684 whole entry): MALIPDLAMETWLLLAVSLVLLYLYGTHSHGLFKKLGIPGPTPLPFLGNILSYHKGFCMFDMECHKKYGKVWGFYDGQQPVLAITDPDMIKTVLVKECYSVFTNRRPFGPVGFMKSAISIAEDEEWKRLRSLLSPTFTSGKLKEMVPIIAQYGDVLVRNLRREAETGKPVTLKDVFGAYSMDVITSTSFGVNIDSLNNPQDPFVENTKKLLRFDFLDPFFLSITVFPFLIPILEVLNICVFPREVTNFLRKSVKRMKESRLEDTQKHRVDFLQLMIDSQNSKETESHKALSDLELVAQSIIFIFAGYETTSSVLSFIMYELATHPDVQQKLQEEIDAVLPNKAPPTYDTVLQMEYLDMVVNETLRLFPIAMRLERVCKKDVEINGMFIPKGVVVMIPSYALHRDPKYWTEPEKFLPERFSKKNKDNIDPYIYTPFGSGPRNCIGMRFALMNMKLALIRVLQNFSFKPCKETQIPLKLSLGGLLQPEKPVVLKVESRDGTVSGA
Chain of Macrophage metalloelastase (Rattus norvegicus, UniProt Q63341) (Q63341 whole entry): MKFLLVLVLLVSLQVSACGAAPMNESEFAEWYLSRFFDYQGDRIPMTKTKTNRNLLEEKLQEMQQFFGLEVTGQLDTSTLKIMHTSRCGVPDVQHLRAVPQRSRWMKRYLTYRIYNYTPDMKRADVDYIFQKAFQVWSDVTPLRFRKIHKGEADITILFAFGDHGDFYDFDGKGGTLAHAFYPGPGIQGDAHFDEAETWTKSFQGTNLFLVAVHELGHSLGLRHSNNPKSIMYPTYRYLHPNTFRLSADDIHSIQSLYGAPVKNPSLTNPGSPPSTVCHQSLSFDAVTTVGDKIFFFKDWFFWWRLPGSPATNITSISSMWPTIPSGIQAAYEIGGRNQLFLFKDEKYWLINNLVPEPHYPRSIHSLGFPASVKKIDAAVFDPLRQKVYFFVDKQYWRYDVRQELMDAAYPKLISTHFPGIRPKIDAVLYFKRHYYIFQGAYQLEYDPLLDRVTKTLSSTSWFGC
Chain of Cytochrome P450 2D6 (P10635 whole entry, the tested form may be a part): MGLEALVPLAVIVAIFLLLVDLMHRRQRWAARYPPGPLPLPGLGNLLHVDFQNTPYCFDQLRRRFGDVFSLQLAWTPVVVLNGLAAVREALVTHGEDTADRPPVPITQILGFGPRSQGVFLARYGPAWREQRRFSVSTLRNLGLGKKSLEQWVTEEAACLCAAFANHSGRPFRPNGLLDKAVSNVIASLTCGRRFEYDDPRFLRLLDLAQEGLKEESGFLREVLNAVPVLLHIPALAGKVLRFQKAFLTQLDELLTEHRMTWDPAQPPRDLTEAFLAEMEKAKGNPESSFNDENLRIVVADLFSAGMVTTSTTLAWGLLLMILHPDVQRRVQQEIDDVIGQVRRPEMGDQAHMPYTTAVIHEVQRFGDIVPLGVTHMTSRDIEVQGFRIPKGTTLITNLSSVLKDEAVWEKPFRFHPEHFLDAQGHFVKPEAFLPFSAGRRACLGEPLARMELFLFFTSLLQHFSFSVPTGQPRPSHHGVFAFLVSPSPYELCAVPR
Chain of Cytochrome P450 2C9 (P11712 whole entry): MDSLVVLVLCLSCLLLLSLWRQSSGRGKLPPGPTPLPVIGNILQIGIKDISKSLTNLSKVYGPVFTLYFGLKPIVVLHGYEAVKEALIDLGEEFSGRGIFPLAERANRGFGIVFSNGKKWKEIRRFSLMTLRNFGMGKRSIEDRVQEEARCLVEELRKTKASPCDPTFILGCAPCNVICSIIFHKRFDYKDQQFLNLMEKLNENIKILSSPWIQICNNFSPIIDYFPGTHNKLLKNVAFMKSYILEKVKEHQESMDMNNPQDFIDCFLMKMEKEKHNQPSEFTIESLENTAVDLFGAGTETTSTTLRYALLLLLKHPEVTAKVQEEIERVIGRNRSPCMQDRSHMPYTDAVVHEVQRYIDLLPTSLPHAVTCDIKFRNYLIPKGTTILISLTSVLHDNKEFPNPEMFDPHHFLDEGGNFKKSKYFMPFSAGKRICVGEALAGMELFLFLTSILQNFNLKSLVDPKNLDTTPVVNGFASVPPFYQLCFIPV

CC(C)[C@H](NS(=O)(=O)c1ccc2c(c1)sc1cc(N3CCOC3=O)ccc12)C(=O)O
half-life (in vitro [1]): > 30 min
half-life (in vitro [2]): > 30 min
IC50 (Collagenase 3): 140 nM
half-life [3]: > 30 min

COC(=O)Nc1ccc2c(c1)oc1cc(S(=O)(=O)N[C@H](C(=O)O)C(C)C)ccc12
half-life (in vitro [1]): > 30 min
half-life (in vitro [2]): > 30 min
IC50 (Collagenase 3): 505 nM
half-life [3]: > 30 min

CC(C)[C@H](NS(=O)(=O)c1ccc2c(c1)sc1cc(N)ccc12)C(=O)O
half-life (in vitro [1]): > 30 min
half-life (in vitro [2]): > 30 min
IC50 (Collagenase 3): > 1000 nM
half-life [3]: > 30 min

CC(C)[C@H](NS(=O)(=O)c1ccc2c(c1)sc1cc(NC(=O)OCCS(C)(=O)=O)ccc12)C(=O)O
half-life (in vitro [1]): > 30 min
half-life (in vitro [2]): > 30 min
IC50 (Collagenase 3): 40 nM
half-life [3]: > 30 min

CC(C)[C@H](NS(=O)(=O)c1ccc2c(c1)sc1cc(NC(=O)NCCc3cccs3)ccc12)C(=O)O
half-life (in vitro [1]): > 30 min
half-life (in vitro [2]): > 30 min
IC50 (Collagenase 3): 456 nM
half-life [3]: > 30 min

CC(C)[C@H](NS(=O)(=O)c1ccc2c(c1)sc1cc(NC(=O)Nc3ccccc3)ccc12)C(=O)O
half-life (in vitro [1]): > 30 min
half-life (in vitro [2]): > 30 min
IC50 (Collagenase 3): 269 nM
half-life [3]: > 30 min

COC(=O)Nc1ccc2c(c1)sc1cc(S(=O)(=O)N[C@H](C(=O)O)C(C)C)ccc12
half-life (in vitro [1]): > 30 min
half-life (in vitro [2]): > 30 min
IC50 (Collagenase 3): 632 nM
half-life [3]: > 30 min

CCNC(=O)Nc1ccc2c(c1)sc1cc(S(=O)(=O)N[C@H](C(=O)O)C(C)C)ccc12
half-life (in vitro [1]): > 30 min
half-life (in vitro [2]): > 30 min
IC50 (Collagenase 3): 809 nM
half-life [3]: > 30 min

CC(C)[C@H](NS(=O)(=O)c1ccc2c(c1)sc1cc(NC(=O)NCc3ccccc3)ccc12)C(=O)O
half-life (in vitro [1]): > 30 min
half-life (in vitro [2]): > 30 min
IC50 (Collagenase 3): 200 nM
half-life [3]: > 30 min

CC(C)[C@H](NS(=O)(=O)c1ccc2c(c1)sc1cc(NC(=O)NC3CCCC3)ccc12)C(=O)O
half-life (in vitro [1]): > 30 min
half-life (in vitro [2]): > 30 min
IC50 (Collagenase 3): > 1000 nM
half-life [3]: > 30 min
IC50 [4]: > 1000 nM

CC(C)[C@@H](NS(=O)(=O)c1ccc2c(c1)sc1cc(NC(=O)Nc3ccccc3)ccc12)C(=O)O
half-life (in vitro [1]): > 30 min
half-life (in vitro [2]): > 30 min
IC50 (Collagenase 3): 1290 nM
half-life [3]: > 30 min

CC(C)[C@H](NS(=O)(=O)c1ccc2c(c1)oc1ccc(N3CCOC3=O)cc12)C(=O)O
inhibition (Ovis aries [5]): Active
IC50 [6]: 318 nM
IC50 [7]: 18000 nM
inhibition in vivo at 30 mg/kg (Mus musculus [8]): 40.3%
clearance [9]: 18 mL/min/kg
IC50 (Matrilysin): 7830 nM
half-life (in vitro [1]): > 30 min
half-life (in vitro [2]): > 30 min
inhibition in vivo at 10 mg/kg (Mus musculus [10]): 35.1%
IC50 [11]: 2250 nM
bioavailability [12]: 17%
IC50 [13]: 72 nM
IC50 (Interstitial collagenase): 5460 nM
Cmax [14]: 456 ng/mL
IC50 [15]: 2 nM
Vd [16]: 0.8 L/kg
inhibition (INH) (Cytochrome P450 3A4): Not Active
IC50 [17]: 27 nM
half-life [18]: 186 min
IC50 [19]: 22600 nM
IC50 (Collagenase 3): 106 nM
inhibition (INH) (Cytochrome P450 2D6): Not Active
IC50 [20]: 40000 nM
half-life [3]: > 30 min
IC50 (Stromelysin-1): 300 nM
inhibition (INH) (Cytochrome P450 2C9): Not Active
inhibition (Ovis aries [21]): Active
inhibition in vivo at 3 mg/kg (Mus musculus [22]): 25.2%
IC50 (Neutrophil collagenase): 37 nM
IC50 [23]: 66 nM
inhibition (INH) [24]: Not Active

COC(=O)Nc1ccc2c(c1)sc1cc(S(=O)(=O)N[C@@H](C(=O)O)C(C)C)ccc12
half-life (in vitro [1]): > 30 min
half-life (in vitro [2]): > 30 min
IC50 (Collagenase 3): 1350 nM
half-life [3]: > 30 min

CCOC(=O)Nc1ccc2c(c1)sc1cc(S(=O)(=O)N[C@@H](C(=O)O)C(C)C)ccc12
half-life (in vitro [1]): > 30 min
half-life (in vitro [2]): > 30 min
half-life [3]: > 30 min

CC(C)[C@@H](NS(=O)(=O)c1ccc2sc3cc(NS(C)(=O)=O)ccc3c2c1)C(=O)O
IC50 (Collagenase 3): > 25000 nM

COC(=O)Nc1ccc2oc3cc(S(=O)(=O)N[C@H](C(=O)O)C(C)C)ccc3c2c1
half-life (in vitro [1]): > 30 min
half-life (in vitro [2]): > 30 min
half-life [3]: > 30 min
IC50 [25]: 2 nM

COC(=O)Nc1ccc2c(c1)oc1cc(S(=O)(=O)N[C@@H](C(=O)O)C(C)C)ccc12
half-life (in vitro [1]): > 30 min
half-life (in vitro [2]): > 30 min
IC50 (Collagenase 3): 215 nM
half-life [3]: > 30 min

CC(C)[C@@H](NS(=O)(=O)c1ccc2sc3ccccc3c2c1)C(=O)O
IC50 (Collagenase 3): 13800 nM
